# Results published in patent US8642352B2, “Methods and systems for detection of stoichiometry by Förster resonance energy transfer” (California Institute of Technology, priority 2009, dated 2014).
# Assays:
# [1] = tested on: ADNFLE α4β2 receptors
# Description: The data on comparative stoichiometry from acceptor photobleach FRET, pixel-based FRET, and FIR measurements obtained from the experiments exemplified in the above examples and in the related figures can be summarized. In particular data gathered for the various subunit transfection ratios, various mutants, and various labeling strategies were analyzed by the relation in FIG. 3D or by Equations 13 and 14, as appropriate.
# The effects of nicotine can also be summarized; in each case, the experiment compared incubation vs. saline.
# [2] = molecular target: WT α4β2 nAChRs (Mus musculus, UniProt O70174+Q9ERK7)
# Description: (§1) In the experimental procedures illustrated in the present disclosure N2a cells were cultured at 37° C. in 95% air, 5% CO2 in medium composed of 44.5% DMEM, 44.5% OptiMEM1, 5% FBS, 100 I.U./ml penicillin and 100 μg/ml streptomycin. For all experiments, cells were plated onto poly-d-lysine coated 35 mm culture dishes with 14 mm glass bottoms. Transfections were performed using a modification of the manufacturer's Lipofectamine and Plus reagent protocol, resulting in non-saturated expression levels of nAChRs (Imoukhuede et al., 2009; Moss et al., 2009; Son et al., 2009). Nicotine at 1 μM final concentration was added to the appropriate dishes (nicotine was replenished with each media change).
# (§2) N2a cells were visualized at room temperature in extracellular buffer, 48 h after transfection. A series of lambda stack X-Y images were collected with the Eclipse C1si laser scanning confocal microscope according to procedures exemplified in Example 5. Dequenching of CFP fluorescence during incremental photobleaching of YFP was performed and analyzed as previously described (Nashmi et al., 2003; Drenan et al., 2008). FRET efficiency (E) was calculated according to (Equation 1).
# (§3) IDA represents the normalized fluorescence intensity of the donor (100%) in the presence of non-bleached acceptor. ID represents the normalized fluorescence intensity of the donor following 100% photobleach of the acceptor. The ID value was extrapolated from a scatter plot of the percentage increase of donor intensity versus the percentage decrease of acceptor intensity for each cell (Nashmi et al., 2003).
# (§4) A series of experiments were carried out with WT nAChR and ADFLE mutated nAChR were performed using image acquisition by FRET acceptor photobleach to detect nAChR stoichiometry before and after contact with nicotine.
# [3] = molecular target: T1, α4β2 V287L nAChR (Mus musculus, UniProt O70174+Q9ERK7, V287L)
# Description: as §1, §2, §3, §4
# [4] = molecular target: T2, α4β2 nAChRs (Mus musculus, UniProt O70174+Q9ERK7)
# Description: (§5) Live cells are imaged using the Eclipse C1si laser scanning confocal microscope. Full emission spectra images are acquired in 5 nm bins between 450 nm and 610 nm, linearly unmixed using reference spectra from samples expressing solely the donor- or acceptor-tagged fusion constructs to unambiguously separate the donor and acceptor signal from each pixel of the spectral images. Transfections of cells expressing only the donor- or acceptor-tagged fusion protein are performed for every imaging session to control for pixel saturation and spectral bleedthrough (SBT). Where appropriate, non-fluorescent subunit cDNAs are included in the transfection to ensure the faithful expression and subcellular localization of the single fluorescent species. Control samples expressing only the donor-fused constructs are imaged with the appropriate laser line and unmixed with acceptor and donor emission spectra. The unmixed acceptor images are termed the FRETd channel, and the fluorescence intensity of each pixel is termed (IFRETd). The donor fluorophore images are the “Donor” channel and pixel intensities are described by Idonor. A montage of all the FRETd channel images and a second montage of all the Donor channel images are assembled and compiled into an image stack called the “Donor SBT stack” in the order FRETd channel, Donor channel.
# (§6) Two spectral images of each cell expressing only the acceptor-fused constructs are acquired, the first excited by the donor specific laser line and the second with the acceptor specific laser line. The acceptor fluorophore signal is unmixed from each image.
# [5] = molecular target: α4β2 nAChRs (Homo sapiens, UniProt P17787+P43681); details: α4:β2 cDNA ratio 1:1, nicotine; Nelson et al., 2003; cited from earlier work
# [6] = molecular target: α4 S248F β2 nAChR (Mus musculus, UniProt O70174+Q9ERK7, S282F); details: α4 subunits carrying S248F and XFP, nicotine 1 μM, 48 h
# Description: (§7) Live cells were imaged using the Eclipse C1si laser scanning confocal microscope according to procedures exemplified in Example 5. Full emission spectra images are acquired in 5 nm bins between 450 nm and 610 nm, linearly unmixed using reference spectra from samples expressing solely the donor- or acceptor-tagged fusion constructs to unambiguously separate the donor and acceptor signal from each pixel of the spectral images.
# as §5, §6
# [7] = molecular target: T1, α4β2 V287L nAChR; details: 1 μM nicotine for 48 h
# Description: as §7, §5, §6
# [8] = molecular target: T2, α4β2 nAChRs; details: α4:β2 cDNA ratio 1:1, exposed to nicotine, N2a cells
# Description: as §1
# [9] = molecular target: α4β2 receptors (Mus musculus, UniProt O70174+Q9ERK7)
# Description: Cells were transfected with membrane-targeted mCherry, α4GFP, and unlabeled β2. Left panels, mCherry; middle panels, α4GFP; right panels, overlay. […] Scale bars, 5 μm.
# All results from microscopy analysis will be correlated to receptor function using whole cell electrophysiology.
# T1 sequence (O70174 31-629): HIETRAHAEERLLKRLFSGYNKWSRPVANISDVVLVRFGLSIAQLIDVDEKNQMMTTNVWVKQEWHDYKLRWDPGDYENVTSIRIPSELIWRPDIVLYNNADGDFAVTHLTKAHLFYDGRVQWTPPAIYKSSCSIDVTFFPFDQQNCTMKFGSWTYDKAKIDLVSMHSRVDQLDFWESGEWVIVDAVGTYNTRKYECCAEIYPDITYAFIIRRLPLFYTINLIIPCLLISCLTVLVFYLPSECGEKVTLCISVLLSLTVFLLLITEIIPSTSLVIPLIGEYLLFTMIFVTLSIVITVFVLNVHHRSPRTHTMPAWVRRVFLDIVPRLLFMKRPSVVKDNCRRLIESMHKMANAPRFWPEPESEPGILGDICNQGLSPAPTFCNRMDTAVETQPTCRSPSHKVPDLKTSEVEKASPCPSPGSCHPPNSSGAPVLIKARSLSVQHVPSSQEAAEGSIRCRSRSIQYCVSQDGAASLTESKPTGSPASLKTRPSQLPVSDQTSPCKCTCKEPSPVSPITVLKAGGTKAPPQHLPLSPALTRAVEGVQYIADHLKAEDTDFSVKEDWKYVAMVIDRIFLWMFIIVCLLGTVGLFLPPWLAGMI
# T1 sequence (Q9ERK7 26-501 V287L): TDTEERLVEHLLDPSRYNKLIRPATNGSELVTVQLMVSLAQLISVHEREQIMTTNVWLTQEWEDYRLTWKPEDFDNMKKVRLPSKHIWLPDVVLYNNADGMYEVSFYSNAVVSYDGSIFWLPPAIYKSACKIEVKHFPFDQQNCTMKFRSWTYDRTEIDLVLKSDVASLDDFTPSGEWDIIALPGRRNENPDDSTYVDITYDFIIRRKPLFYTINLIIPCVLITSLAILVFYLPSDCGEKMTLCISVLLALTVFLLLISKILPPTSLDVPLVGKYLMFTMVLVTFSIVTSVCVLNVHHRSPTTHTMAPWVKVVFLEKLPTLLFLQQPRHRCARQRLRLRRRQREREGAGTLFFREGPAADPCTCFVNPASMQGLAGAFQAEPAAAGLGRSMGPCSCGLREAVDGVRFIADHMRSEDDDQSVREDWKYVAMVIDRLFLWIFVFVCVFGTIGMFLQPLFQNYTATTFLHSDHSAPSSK
# T2 sequence (O70174 31-629): as the sequence (O70174 31-629) above
# T2 sequence (Q9ERK7 26-501): as the sequence (Q9ERK7 26-501 V287L) above, with L262V counted along it
# Sequence of WT α4β2 nAChRs (O70174 31-629): as the sequence (O70174 31-629) above
# Sequence of WT α4β2 nAChRs (Q9ERK7 26-501): as the sequence (Q9ERK7 26-501 V287L) above, with L262V counted along it
# Sequence of α4β2 receptors (O70174 31-629): as the sequence (O70174 31-629) above
# Sequence of α4β2 receptors (Q9ERK7 26-501): as the sequence (Q9ERK7 26-501 V287L) above, with L262V counted along it
# Sequence of α4β2 nAChRs (Homo sapiens, UniProt P17787+P43681) (P43681 29-627 limits assumed): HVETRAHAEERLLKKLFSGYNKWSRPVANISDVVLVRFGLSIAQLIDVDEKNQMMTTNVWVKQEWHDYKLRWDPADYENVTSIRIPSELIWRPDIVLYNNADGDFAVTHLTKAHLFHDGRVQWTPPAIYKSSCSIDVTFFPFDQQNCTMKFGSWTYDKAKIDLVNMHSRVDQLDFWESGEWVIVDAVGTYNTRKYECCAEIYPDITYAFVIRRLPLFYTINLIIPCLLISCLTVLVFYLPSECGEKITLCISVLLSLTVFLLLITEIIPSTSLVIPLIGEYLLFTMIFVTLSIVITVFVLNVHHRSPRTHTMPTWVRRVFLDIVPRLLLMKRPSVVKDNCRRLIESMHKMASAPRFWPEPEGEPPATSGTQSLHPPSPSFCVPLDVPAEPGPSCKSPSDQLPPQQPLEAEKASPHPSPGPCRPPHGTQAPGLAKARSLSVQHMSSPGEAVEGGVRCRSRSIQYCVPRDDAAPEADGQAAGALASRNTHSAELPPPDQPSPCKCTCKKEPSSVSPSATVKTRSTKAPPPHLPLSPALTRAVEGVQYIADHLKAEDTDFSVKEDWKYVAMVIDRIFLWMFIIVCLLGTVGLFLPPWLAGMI
# Sequence of α4β2 nAChRs (Homo sapiens, UniProt P17787+P43681) (P17787 26-502): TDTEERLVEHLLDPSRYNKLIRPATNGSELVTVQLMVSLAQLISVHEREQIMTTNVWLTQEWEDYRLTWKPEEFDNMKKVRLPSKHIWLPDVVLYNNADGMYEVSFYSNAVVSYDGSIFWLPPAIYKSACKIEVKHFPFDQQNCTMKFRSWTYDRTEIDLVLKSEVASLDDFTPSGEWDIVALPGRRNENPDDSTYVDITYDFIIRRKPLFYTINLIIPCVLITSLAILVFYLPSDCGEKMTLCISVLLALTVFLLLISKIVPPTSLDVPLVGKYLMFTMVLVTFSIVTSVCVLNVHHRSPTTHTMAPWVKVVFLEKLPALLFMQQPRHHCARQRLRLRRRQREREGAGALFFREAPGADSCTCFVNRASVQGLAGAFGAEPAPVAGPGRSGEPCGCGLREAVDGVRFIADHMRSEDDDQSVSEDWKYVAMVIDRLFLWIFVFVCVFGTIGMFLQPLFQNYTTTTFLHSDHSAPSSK
# Sequence of α4 S248F β2 nAChR (O70174 31-629 S282F): as the sequence (O70174 31-629) above, with S252F counted along it
# Sequence of α4 S248F β2 nAChR (Q9ERK7 26-501): as the sequence (Q9ERK7 26-501 V287L) above, with L262V counted along it
smiles,measurement,setting,value
"CN1CCCC1c1cccnc1 (centres unmarked) [Nicotine, nicotine]",Percentage of (α4)3(β2)2 ADNFLE receptors after nicotine incubation relative to saline incubation,[1]; at least five experiments,0.8
same,"Ratio nicotine/saline of percentage of (α4)3(β2)2 ADNFLE receptors, all cases",[1]; each of at least five experiments,< 1
same,Shift of WT receptor stoichiometry on incubation in nicotine,"[2]; 1:1 cDNA α4XFP:β2 or α4:β2XFP, nicotine 1 μM",shifts the receptor population toward the (α4)2(β2)3 stoichiometry
same,"Percent of (α4)3(β2)2 for WT nAChRs, FRET","[2]; α4:β2 cDNA ratio 1:1, exposed to nicotine, N2a cells",61 ± 6%
same,FRET efficiency of nicotine-treated versus unexposed cells,[3]; cells transfected with α4XFP β2 V287L,lower FRET efficiency
same,FRET efficiency after incubation in nicotine compared to control cells,[3]; cells transfected with α4 and β2 V287L XFP subunits,significantly higher
same,Shift in stoichiometry in the presence of nicotine,[3]; β2 V287L ADNFLE mutation,shift in stoichiometry towards (α4)2(β2)3
same,Receptor population in the Golgi,"[4]; trans-Golgi ROI (GalT-CFP), 1 μM nicotine, 4 h post-exposure",pure (α4)2(β2)3 receptor population
same,Duration of the stoichiometry switch post nicotine exposure,[4]; whole cell NFRET,at least 24 h
same,Receptor population expressing the high-sensitivity (α4)2(β2)3 stoichiometry,"[4]; whole cell NFRET distribution, 4 h exposure to a saturating dose (1 μM) of nicotine",80%
same,"Percent of (α4)3(β2)2 for WT nAChRs, Reported",[5],68 ± 5%
same,Shift of receptor population stoichiometry,[6],shifted the population toward the (α4)2(β2)3 stoichiometry
same,α4 intersubunit FRET efficiency,[7]; α4XFP plus β2V287L,completely back to WT levels
same,Mean β2 intersubunit FRET efficiency,[7]; α4 plus β2(V287L)XFP,increased to a level even higher than the control cells
same,"Percent of (α4)3(β2)2 for WT nAChRs, FIR",[8],73%
same,Upregulation at the plasma membrane by TIRFM,[9]; 4 h of 1 μM nicotine exposure,sufficient to cause upregulation at the plasma membrane
same,α4GFP fluorescence in TIRF images,"[9]; incubation for 48 h in nicotine, α4GFP plus unlabeled β2",much brighter
